From patent US20020061849A1, “Methods for treatment of diseases associated with inflammation under non-ischemic conditions” (priority 2000, published 2002)

Tests used:
[1] = tested on: lung tissue exposed with LPS; assay: LPS-inhalation induced lung inflammation, differential counting of lavage cells; conditions: rats, LPS inhalation 5 mg for 20 min, lavage 24 h later, treatment at onset of LPS and after 12 hours (α-MSH 50 μg i.v.; Epoitin 100 U/kg/day i.p.)
Method: Studies were performed on male Spraque Dawley rats (Møllegard Breeding centre Ltd., Eiby, Denmark). The rats were maintained on a standard rodent diet (Altromin, Lage, Germany) with free access to water. Inflammation of the lungs (asthma) was induced by LPS inhalation with the animals anesthetized using Midazolam and Hypnorm The LPS was administrated by connecting the rat to a semiclosed breathing system consisting of a MAXIN bottle filled with a mixture of LPS in saline connected to a standard inhalation chamber. Each animals is exposed for 20 min with 5 mg LPS. Twenty-four hours after exposure to LPS rats were killed. Subsequently, lavage was performed by washing the lungs with PBS (5 ml) 6 times. The lung tissue was then centrifuged for 10 min (1000 rpm) and resuspended in 0.5 ml. From each sample 2 blood smears were made. They were air-dryed, fixed and counterstained for differential cell counting.

[2] = tested on: adriamycin-induced nephrotic syndrome; assay: Adriamycin-induced nephrotic syndrome
Method: Protocol IV-1. Rats were treated with adriamycin (7.5 mg/kg i.p.; n=12) and followed for 21 days, respectively. Shams received saline i.p. (n=6). […] The other half received vehicle (saline) in osmotic minipumps.
Protocol IV-3. Rats were treated with adriamycin (7.5 mg/kg i.p.; n=8) and followed for 21 days, respectively. Shams received saline i.p. (n=6). Half of the adriamycin treated animals received epoetin (100 units/kg/day) during the entire experiments. The other half received vehicle (saline).

[3] = tested on: renal function in rats treated with continious LPS infusion; assay: Systemic LPS infusion by osmotic minipump for three days, renal function; conditions: for increase of GFR (creatinin clearance) compared to the LPS-Vehicle group: LPS infusion for three days; for survival during 3 days of LPS-administration: N=5 per group, mortality in vehicle group 20%
Method: To relieve postoperative pain, rats were treated with buprenorfin, 0.2 mg/kg body weight i.p. Two weeks later the rats were anesthetized with halothane-nitrous oxide and a osmotic minipump (Alzet 1003D)filled with a LPS solution was implanted into the abdomen. The mean infusion rate of LPS was 200 μg/kg/hour. All rats except the control rats received LPS infusion. N=5 in all groups.
Protocol II: Systemic LPS-infusion:
II-1. Controls. Untreated rats without LPS infusion.
II-2 Vehicle: Rats receiving LPS infusion treated with 0.5 ml 0.9% NaCl twice daily.
II-3 rh-EPO: Rats receiving LPS infusion treated with 200 I.U. epoitin alpha (EPO)/kg body weight in 0.5 ml 0.9% NaCl twice daily.

AQP2 = assay: Bilateral ureteral obstruction (BUO), semiquantitative immunoblotting of AQP2; format: in vivo, rat; conditions: inner medulla, 24 h BUO; α-MSH 50 μg i.v. at onset and 12 hours later (nontreated 13±4%); epoitin 100 U/kg/day i.p. (nontreated 16±3%)
Method: (§1) Adult Munich-Wistar rats were anesthetized with halothane and placed on a heating board under an operating microscope, Through a midline abdominal incision both ureters were exposed and occluded by placing a 5-mm piece of bisected polyethylene tubing (PE-50) around the midportion of each ureter. The ureter was then occluded by tightening the tubing with a 5-0 silk ligature. 24 hours later, the obstructed ureters were decompressed by removal of the ligature and the PE-50 tubing. Done in this manner, both ureters could be completely occluded for 24 h and without evidence of functional impairment of ureteral function and rats followed up to several days after release of obstruction.
(§2) Protocol III-1: This protocol included 1) Rats with BUO for 24 hours (n=20) and 2) sham-operated rats (n=10).
Protocol III-6: This protocol included 1) Rats with BUO for 24 hours and 2) sham-operated rats. […]
(§3) ECL films with bands within the linear range were scanned using an AGFA scanner (ARCUS II) and Corel Photopaint Software to control the scanner. […] The labeling density was determined of blots where samples of kidneys from α-MSH treated and nontreated groups were run together with samples from control kidneys. […]

Na,K-ATPase = assay: Bilateral ureteral obstruction (BUO), semiquantitative immunoblotting of Na,K-ATPase; format: in vivo, rat; conditions: whole kidney; for Na-K-ATPase levels, % of control: nontreated 35-50% of control levels
Method: as §1, §2
(§4) Protocol III-2: This protocol included 1) Rats with BUO for 24 hours and followed by release for 5 hours (n=10) and 2) Sham operated rats (n=5). The rats with BUO-R were divided into two groups: α-MSH nontreated (n=5) and α-MSH treated (n=5). α-MSH ([…], i.v.) was given at the onset of BUO, 12 hours later and at the onset of release.
Protocol III-3: This protocol included 1) Rats with BUO for 24 hours and followed by release for 48 hours. The rats were divided into two groups: α-MSH nontreated (n=10) and α-MSH treated (n=13). α-MSH (50 μg) was given with micro-osmotic pump via jugular vein at the onset of BUO. 2) Sham operated rats (n=8) treated with vehicle with micro-osmotic pump. […]
as §3

AQP1 = assay: Bilateral ureteral obstruction (BUO), semiquantitative immunoblotting of AQP1; format: in vivo, rat
Method: as §1, §4
(§5) Protocol III-3: This protocol included 1) Rats with BUO for 24 hours and followed by release for 48 hours. The rats were divided into two groups: α-MSH nontreated (n=10) and α-MSH treated (n=13). α-MSH (50 μg) was given with micro-osmotic pump via jugular vein at the onset of BUO. 2) Sham operated rats (n=8) treated with vehicle with micro-osmotic pump.
Inner medulla and whole kidneys were homogenized (0.3 M sucrose, 25 mM imidazole, 1 mM EDTA, pH 7.2, containing 8.5 μM leupeptin. 1 mM phenylmethyl sulfonylfluoride) using an ultra-turrax T8 homogenizer (IKA Labortechnik, Germany), at 5 strokes for 20 seconds (inner medulla) or at 5.5 strokes for 30 seconds (whole kidney) and the homogenate was centrifuged in an Eppendorf centrifuge at 4000 g for 15 minutes at 4° C. to remove whole cells, nuclei and mitochondria. Gel samples (Laemmli sample buffer containing 2% SDS) were made of this pellet.
[…] For each gel, identical gel was run in parallel and subjected to Coomassie staining to assure identical loading. Then gels were subjected to immunoblotting. […] The labeling was visualized with horseradish peroxidase (HRP)-conjugated secondary antibodies (P448, DAKO, Glostrup Denmark, diluted as 1:3000) using an enhanced chemiluminescence system (ECL, Amersham International, UK).
as §3, with “scanner. For AQP1 and AQP2, both the 29-kDa and the 35- to 50-kDa bands (corresponding to nonglycosylated and the glycosylated species) were scanned.” for “scanner.”

AQP3 = assay: Bilateral ureteral obstruction (BUO), semiquantitative immunoblotting of AQP3; format: in vivo, rat; conditions: inner medulla
Method: as §1, §2
Protocol III-2: This protocol included 1) Rats with BUO for 24 hours and followed by release for 5 hours (n=10) and 2) Sham operated rats (n=5). […]
as §3

[4] = tested on: purimycin-induced nephrotic syndrome; assay: Purimycin (PAN)-induced nephrotic syndrome
Method: Nephrotic syndrome was induced by a single i.p. or s.c. injection of adriamycin or purimycin (at various doses) and the rats were followed for 7 days-21 days. Development of severe nephrotic syndrome was established by monitoring the total body weight, urinary protein excretion (proteinuria) and at time of ending the experiment the volume of fluid in the abdominal cavity was determined (rats develop severe water retention and ascites).
Protocol IV-2. Rats were treated with purimycin (100 mg/kg i.p., n=6) and followed for 11 days, respectively.
To determine the levels of proteinuria in experimental nephrotic syndrome urine was examined daily using Albym (Boehringer-Mannheim).

[5] = tested on: renal function in rats with BUO; assay: Bilateral ureteral obstruction (BUO), plasma parameters and clearance studies; format: in vivo, rat
Method: as §1, §2, §5
1) Rats with BUO for 24 hours followed by release for 48 hours (n=10) and 2) sham-operated rats (n=5).
Weight, water intake, food intake and urine output were observed during the rats were maintained in the metabolic cages. Urine was collected over 24-h periods throughout the study. Urine volume, osmolality, creatinine, sodium and potassium concentration were measured. Plasma was collected from abdominal aorta at the time of sacrifice for measurement of sodium and potassium concentration, creatinine, and osmolality. In protocols 4 and 9 detailed examinations of renal function was performed: The experiments were carried out between 8 a.m. and 1 p.m. The rats were transferred to a restraining cage and connected to infusion pumps via the vein catheter and to a BP transducer via the arterial catheter. Urine was collected in three periods of 20 min preceded by an equilibration period of 105 min. Throughoutthe experiment, a half isotone saline (77 mM NaCl) was infused at a rate of 70 μl/min to maintain a minimum urine flow necessary for accuracy of the bladder emptying. ^14C-tetraethylammonium bromide (0.83 μCi/ml; New England Nuclear, Boston, Mass.), together with ^3H-inulin (2.5 μCi/ml; Amersham, Rainham, United Kindgom) and LiCI (13 mmol/L), were infused together with the saline as markers of effective renal plasma flow (ERPF), GFR, and tubular fluid delivery from proximal tubules (Vprox), respectively. A bolus of markers four times the continuous infusion velocity was given in the first 15 min. Blood samples (200 μl) were drawn from the arterial catheter after 105 and 165 min. Blood substitution with donor blood was given after each blood sample. Mean arterial BP was recorded continuously using a Uniflow™ transducer (Baxter, Irvine, Calif.) connected to a preamplifier and PC registration. Clearance experiments were carried out in BUO and SHAM rats 7 days prior to obstruction and 48 hours after release of BUO.
Urine volume was determined by gravimetric means.

[6] = BUO for 24 h followed by 48 h of release

epoitin alpha
Differential counting of cells %, Eosinofiles [1]: 0.7 ± 0.6% | Differential counting of cells %, Lymfocytes [1]: 77.1 ± 9.9% | Differential counting of cells %, Monocytes [1]: 11.4 ± 4.6% | Differential counting of cells %, Neutrofiles [1]: 10.9 ± 12.7% | Differential counting of cells %, Eosinofiles ([1]; listed as epoitin): 0.7±0.6% | Differential counting of cells %, Neutrofiles ([1]; listed as epoitin): 10.9±12.7% | ascites formation, result in words ([2]; adriamycin-induced nephrotic syndrome, EPO once every 24 hours): prevented the ascites formation | increase of GFR (creatinin clearance) compared to the LPS-Vehicle group [3]: 51% | survival during 3 days of LPS-administration [3]: All animals survived | AQP2 expression, % of sham level (AQP2): 30±18%

α-melanocyte-stimulating hormone [α-MSH]
Na-K-ATPase levels, % of control (Na,K-ATPase; 24 h BUO followed by 5 h of release): 102±14% | Na,K-ATPase levels (Na,K-ATPase; 24 h BUO, result in words): completely normalized | Na-K-ATPase levels, % of control (Na,K-ATPase; 48 hours after release of BUO): 114±10% | Differential counting of cells %, Eosinofiles [1]: 1.8±1.3% | Differential counting of cells %, Lymfocytes [1]: 72.3 ± 12.1% | Differential counting of cells %, Monocytes [1]: 12.3 ± 7.4% | prevention of ascites production ([2]; adriamycin i.p. (Protocol IV-1), α-MSH for 3-4 days after injection): 89±7% | AQP1 expression, % of sham level (AQP1; outer medulla and cortex, 24 h BUO followed by release for 5 hours, nontreated 35±2%): 62±9% | AQP1 expression, % of sham level (AQP1; outer medulla and cortex, 24 h BUO followed by release for 48 hours, α-MSH by micro-osmotic pump): 73±8% | AQP1 expression, % of sham level (AQP1; whole kidney, 24 h BUO followed by release for 5 hours, α-MSH 50 μg i.v. at onset, 12 hours later and at release, nontreated 7±2%): 81±21% | AQP1 expression, % of sham level (AQP1; whole kidney, 24 h BUO followed by release for 48 hours, α-MSH 50 μg by micro-osmotic pump, nontreated 24±5%): 58±6% | AQP3 expression, % of sham level (AQP3; 24 h BUO followed by release for 5 hours, nontreated 14±5%): 34±4% | AQP3 expression, % of sham level (AQP3; 24 h BUO, α-MSH 50 μg i.v. at onset and 12 hours later, nontreated 19±4%): 44±3% | proteinuria levels ([4]; PAN rats at day 5 after PAN injection (FIG. 3), result in words): marked reduction | proteinuria ([4]; low dose purimycin treatment (Protocol IV-2), result in words): marked reduction | reduction of ascites production ([4]; low dose purimycin treatment, n=6 (Protocol IV-2)): 80±8% | preventive effect on nephrotic syndrome ([4]; very servere purimycin (high dose) induced nephrotic syndrome, result in words): less potent effect | increase of GFR (creatinin clearance) compared to the LPS-Vehicle group [3]: 57% | survival during 3 days of LPS-administration [3]: All animals survived | plasma sodium levels ([5]; 24 h BUO, without α-MSH 135±2 mmol/L): 139 ± 0.6 mmol/L | Glomerular filtration rate (GFR) ([5]; 48 hours after release of BUO, SHAM 840±105): 705±85 μl/min/100 g | Effective renal plasma flow (ERPF) ([5]; 48 hours after release of BUO, SHAM 2633±457): 2598±129 μl/min/100 g | plasma urea ([5]; BUO for 24 h followed by 48 of release, nontreated 35±9 mmol/l): 13 ± 2 mmol/L | Plasma creatinine levels ([5]; BUO for 24 h followed by 48 of release, nontreated 160±34 μmol/l): 79 ± 34 µmol/L | ERPF, result in words [5, 6]: completely normalized | GFR, result in words [5, 6]: completely normalized | AQP2 expression, % of sham level (AQP2): 38±5%
